The test system of data set [1] is Trichomonas vaginalis. Put plainly: […] activity against Trichomonas vaginalis G3 at 10 uM after 24 hrs by hemocytometry. The data set is classed as functional. The following applies: G3, 24 h.
The subject of data set [2] is Trichomonas vaginalis. Put plainly: […] activity against Trichomonas vaginalis G3 after 24 hrs by hemocytometry. The class given is functional. The following applies: G3, 24 h.
Data set [3] has as its system Trichomonas vaginalis. The data set can be described thus: […] activity against Trichomonas vaginalis G3 at 100 uM after 24 hrs by hemocytometry. The class given is functional. The following applies: G3, 24 h.
In data set [4] the test system is CHO-K1. Put plainly: Cytotoxicity against CHOK1 cells assessed as change in cell morphology at 100 uM by light microscopy. The class given is cell-based, Cricetulus griseus. The following applies: chinese hamster, cho-k1, 100 µM.
In data set [5] the test system is CHO-K1. The data set can be described thus: Cytotoxicity against CHOK1 cells assessed as change in cell morphology by light microscopy. The class given is cell-based. The following applies: Cricetulus griseus.

Usually inhibition stands for the relative decrease from the control value, in per cent. Read a high inhibition as strong suppression. As usually defined, the IC50 is the point on the concentration scale where inhibition reaches its midpoint.

As to `O=C1C(=O)N(Cc2cn([C@@H]3C(=O)N(c4ccccc4)[C@@H]3/C=C/c3ccccc3)nn2)c2ccc(F)cc21` (relative stereo), in data set [1], the inhibition at 10 µM amounted to 58.5%. In addition, it took 7.06 µM to reach half-maximal inhibition in data set [2] (IC50). In data set [3], the inhibition at 100 µM amounted to 100%. The Activity result in data set [4] was “Toxic”.

Consider `O=C1C(=O)N(Cc2cn([C@@H]3C(=O)N(c4ccc(Cl)cc4)[C@@H]3/C=C/c3ccccc3)nn2)c2ccc(Cl)cc21` (relative stereo), for which the inhibition at 10 µM in data set [1] was 53.7%. The compound also yielded a 50% inhibitory concentration (IC50) in data set [2] of 9.94 µM. In data set [3], this compound had an inhibition at 100 µM of 100%. The Activity result in data set [4] is recorded as “Toxic”.

For `O=C1C(=O)N(Cc2cn([C@@H]3C(=O)N(c4ccc(F)cc4)[C@@H]3/C=C/c3ccccc3)nn2)c2ccc(F)cc21` (relative stereo), the inhibition at 10 µM in data set [1] was 19.5%. In data set [3], this compound returned an inhibition at 100 µM of 100%. Also, the Activity entry in data set [4] was “Toxic”.

For the compound `O=C1C(=O)N(Cc2cn([C@@H]3C(=O)N(c4ccccc4)[C@@H]3/C=C/c3ccccc3)nn2)c2ccc(Br)cc21` (relative stereo), the inhibition at 10 µM in data set [1] was 83%. This compound had a 50% inhibitory concentration (IC50) in data set [2] of 9.34 µM. Moreover, the inhibition at 100 µM in data set [3] came out at 100%. In data set [4], the Activity result was “Toxic”.

Consider `O=C1C(=O)N(Cc2cn([C@@H]3C(=O)N(C4CCCCC4)[C@@H]3/C=C/c3ccccc3)nn2)c2ccc(Br)cc21` (relative stereo), for which, in data set [1], the inhibition at 10 µM amounted to 4.9%. In data set [3], this compound came in with an inhibition at 100 µM of 100%. Also, the Activity result in data set [4] is “Toxic”.

In turn, `O=C1C(=O)N(Cc2cn([C@@H]3C(=O)N(C4CCCCC4)[C@@H]3/C=C/c3ccccc3)nn2)c2ccc(Cl)cc21` (relative stereo) registered an inhibition at 10 µM in data set [1] of 7.3%. The same compound returned an inhibition at 100 µM in data set [3] of 100%. Besides, the Activity entry in data set [4] is reported as “Toxic”.

Compound `Cc1ccc2c(c1)C(=O)C(=O)N2Cc1cn([C@@H]2C(=O)N(c3ccccc3)[C@@H]2/C=C/c2ccccc2)nn1` gave an inhibition at 10 µM in data set [1] of 0%. Further, in data set [3], at 100 µM the inhibition was 82.6%. Also, in data set [4], the Activity result is “Toxic”.

In data set [1], `O=C1C(=O)N(Cc2cn([C@@H]3C(=O)N(C4CCCCC4)[C@@H]3/C=C/c3ccccc3)nn2)c2ccccc21` returned an inhibition at 10 µM of 26.8%. In data set [3], testing at 100 µM gave an inhibition of 100%. In data set [4], the Activity entry is reported as “Toxic”.

In data set [1], `O=C1C(=O)N(Cc2cn([C@@H]3C(=O)N(Cc4ccccc4)[C@@H]3/C=C/c3ccccc3)nn2)c2ccc(Cl)cc21` (relative stereo) displayed an inhibition at 10 µM of 7.3%. The compound also had an inhibition at 100 µM in data set [3] of 67.4%. In addition, in data set [4], the Activity entry is listed as “Toxic”.

In data set [1], `O=C1C(=O)N(Cc2cn([C@@H]3C(=O)N(c4ccccc4)[C@@H]3/C=C/c3ccccc3)nn2)c2ccc(Cl)cc21` (relative stereo) came in with an inhibition at 10 µM of 61%. The same compound registered an IC50 in data set [2] of 9.82 µM. At 100 µM the inhibition in data set [3] was 100%. Further, in data set [4], the Activity result was “Toxic”.

The compound `O=C1C(=O)N(Cc2cn([C@@H]3C(=O)N(c4ccc(Cl)cc4)[C@@H]3/C=C/c3ccccc3)nn2)c2ccccc21` (relative stereo) came in with an inhibition at 10 µM in data set [1] of 80.5%. In data set [2], the IC50 is 8.27 µM. The compound also had an inhibition at 100 µM in data set [3] of 100%. The Activity result in data set [4] is “Toxic”.

For `O=C1C(=O)N(Cc2cn([C@@H]3C(=O)N(c4ccc(F)cc4)[C@@H]3/C=C/c3ccccc3)nn2)c2ccc(Br)cc21` (relative stereo), in data set [1], the inhibition at 10 µM was found to be 0%. In addition, in data set [3], the inhibition at 100 µM is 100%. Besides, the Activity entry in data set [4] is “Toxic”.

Consider `Cc1ccc(N2C(=O)[C@@H](n3cc(CN4C(=O)C(=O)c5cc(F)ccc54)nn3)[C@H]2/C=C/c2ccccc2)cc1` (relative stereo), for which, in data set [1], the inhibition at 10 µM was found to be 58.5%. The same compound displayed an IC50 in data set [2] of 22.1 µM. The same compound yielded an inhibition at 100 µM in data set [3] of 100%. The Activity entry in data set [4] is on record as “Toxic”.

On to `O=C1C(=O)N(Cc2cn([C@@H]3C(=O)N(C4CCCCC4)[C@@H]3/C=C/c3ccccc3)nn2)c2ccc(F)cc21` (relative stereo), for which at 10 µM the inhibition in data set [1] was 0%. This compound came in with an inhibition at 100 µM in data set [3] of 100%. Also, the Activity entry in data set [4] was “Toxic”.

In the case of `O=C1C(=O)N(Cc2cn([C@@H]3C(=O)N(Cc4ccccc4)[C@@H]3/C=C/c3ccccc3)nn2)c2ccc(F)cc21` (relative stereo), at 10 µM the inhibition in data set [1] was 0%. In data set [3], this compound returned an inhibition at 100 µM of 19.6%. Further, the Activity result in data set [4] is on record as “Toxic”.

`Cc1ccc(N2C(=O)[C@@H](n3cc(CN4C(=O)C(=O)c5ccccc54)nn3)[C@H]2/C=C/c2ccccc2)cc1` displayed an inhibition at 10 µM in data set [1] of 4.9%. In data set [2], inhibition was half-maximal at 27.5 µM (IC50). In data set [3], this compound had an inhibition at 100 µM of 100%. Moreover, the Activity entry in data set [4] is reported as “Toxic”.

The compound `O=C1C(=O)N(Cc2cn([C@@H]3C(=O)N(Cc4ccccc4)[C@@H]3/C=C/c3ccccc3)nn2)c2ccccc21` (relative stereo) displayed an inhibition at 10 µM in data set [1] of 7.8%. This compound also came in with an IC50 in data set [2] of 8.68 µM. Moreover, the inhibition at 100 µM in data set [3] is 100%. Moreover, the Activity entry in data set [4] is listed as “Toxic”.

In data set [1], `Cc1ccc2c(c1)C(=O)C(=O)N2Cc1cn([C@@H]2C(=O)N(C3CCCCC3)[C@@H]2/C=C/c2ccccc2)nn1` (relative stereo) gave an inhibition at 10 µM of 9.8%. In data set [2], it took 44.5 µM to reach half-maximal inhibition (IC50). The same compound returned an inhibition at 100 µM in data set [3] of 95.7%. For the same compound, the Activity entry in data set [4] is recorded as “Toxic”.

As for `Cc1ccc(N2C(=O)[C@@H](n3cc(CN4C(=O)C(=O)c5cc(Cl)ccc54)nn3)[C@H]2/C=C/c2ccccc2)cc1` (relative stereo), in data set [1], testing at 10 µM gave an inhibition of 48.8%. In data set [2], this compound had a concentration for half-maximal inhibition (IC50) of 10.1 µM. The compound also gave an inhibition at 100 µM in data set [3] of 100%. The Activity entry in data set [4] was “Toxic”.

For `O=C1C(=O)N(Cc2cn([C@@H]3C(=O)N(c4ccc(F)cc4)[C@@H]3/C=C/c3ccccc3)nn2)c2ccccc21` (relative stereo), the IC50 in data set [5] and in data set [2] was 7.69 µM each time. Moreover, the inhibition at 10 µM in data set [1] stood at 38.5%. The compound further yielded an inhibition at 100 µM in data set [3] of 100%.

In turn, `O=C1C(=O)N(Cc2cn([C@@H]3C(=O)N(c4ccccc4)[C@@H]3/C=C/c3ccccc3)nn2)c2ccccc21` (relative stereo) yielded an inhibition at 10 µM in data set [1] of 100%. The compound also registered an inhibition at 100 µM in data set [3] of 100%. In data set [4], the Activity entry is recorded as “Toxic”.

Take `O=C1C(=O)N(Cc2cn([C@@H]3C(=O)N(c4ccc(F)cc4)[C@@H]3/C=C/c3ccccc3)nn2)c2ccc(Cl)cc21` (relative stereo): in data set [1], the inhibition at 10 µM is 14.6%. Moreover, in data set [3], the inhibition at 100 µM came to 100%. Besides, in data set [4], the Activity result is reported as “Toxic”.

Source of the values: ChEMBL document CHEMBL2375222, “Synthesis of 1H-1,2,3-triazole linked β-lactam-isatin bi-functional hybrids and preliminary analysis of in vitro activity against the protozoal parasite Trichomonas vaginalis” (Eur J Med Chem, 2013).
